Results on 19 molecules are retold here after US6555062B1, “Reagent container for an automated analyzer” (Bayer Corporation, priority 1991, dated 2003).

Several values for one entry are separate records, joined by “and”; a condition that tells them apart may be missing. Identical values can stand only once. A value given as a limit tells only on which side of the number the result lay.

The subject of test [1] is prostate specific antigen (PSA) assay. Nature of the test: PSA chemiluminescent immunoassay, interfering substances (endogenous compounds, chemotherapeutic agents). Particulars: mean over three PSA levels. Here is the method:
A prostate specific antigen (PSA) assay has been developed for the above described automated analyzer. The PSA assay utilizes an anti-PSA antibody solid phase and a labeled anti-PSA antibody as a tracer reagent. […] A test sample (100 uL.), tracer reagent (50 uL.) and solid phase reagent (250 uL.) are dispersed into a cuvette by the analyzer and incubated for 7.5 minutes at 37° C. After the incubation, magnetic separation and washes are performed as described above prior to detection of the chemiluminescent signal.
All data presented was generated based on a two-point calibration off a standard curve consisting of eight points.

Test [2] concerns monoclonal anti-digoxin antibody. Nature of the test: Digoxin chemiluminescent immunoassay, specificity (cross-reactivity, effect on dose). It is filed as binding. Particulars: digoxin assay. Here is the method:
A digoxin assay has been developed for the above described automated analyzer. The digoxin assay architecture is a hapten solid phase with a labeled antibody (tracer reagent). In the preferred format of this assay, the tracer reagent is an acridinium ester labeled monoclonal anti-digoxin antibody; and the solid phase is paramagnetic particles to which digoxin-apoferritin has been immobilized. A test sample (150 uL.) and tracer reagent (50 uL.) are dispensed into a cuvette by the analyzer and incubated for 2.5 minutes at 37° C. The solid phase reagent (250 uL.) is then added to the cuvette followed by an additional incubation of 5.0 minutes. After the second incubation, magnetic separation and washes are performed as described above prior to detection of the chemiluminescent signal.
(§1) All data presented was generated based upon a two-point recalibration off an original master curve. The master curve was generated using eight standards with values ranging from zero to 6 ng/mL digoxin.
The test assay has a sensitivity of less than 0.1 ng/mL (minimum detectable dose defined as the 95% confidence limit at 0 ng/mL.) with a range of 0-5 ng/mL. The correlation of the automated test assay with a manual test assay (Magic^R Digoxin, Ciba Corning Diagnostics, Corp.) provided a slope of 1.00, an intercept of 0.08 and a correlation coefficient of 0.97 (N=130).

Test [3] deals with T4 antiserum covalently coupled to the solid phase. Nature of the test: Free thyroxine (FT4) competitive chemiluminescent immunoassay, specificity (% cross-reactivity). The class given is binding. The settings on record: FT4 assay, anti-T4 paramagnetic particles, 7.5 minutes at 37° C. Here is the method:
A free thyroxine (FT4) assay has been developed for the above described automated analyzer. The FT4 assay is a competitive binding assay in which FT4 in a test sample competes with labeled T4 (tracer reagent) for a limited amount of T4 antiserum covalently coupled to the solid phase. In the preferred format of this assay acridinium ester is the label and paramagnetic particles serve as the solid phase. A test sample (25 uL.) acridinium ester labeled T4 (100 uL.) and anti-T4 paramagnetic particles (450 uL.) are dispensed by the analyzer into a cuvette and incubated for 7.5 minutes at 37° C. After incubation, magnetic separation and washes are performed as described prior to detection of the chemiluminescent signal. The amount of FT4 present in the test sample is determined by the level of the signed detected and is converted to a dose by a two-point data reduction algorithm.

Test [4] concerns human chorionic gonadotropin (hCG) assay. In words: hCG sandwich immunoassay, interfering substances (NCCLS protocols). The settings on record: bilirubin 20, lipid 1,000, hemolysate 500 mg/dL. Here is the method: A human chorionic gonadotropin (hCG) assay has been developed for the above described automated analyzer. […] A test sample (50 uL.) and tracer reagent (100 uL.) are dispensed into a cuvette by the analyzer and incubated for 5.0 minutes at 37° C. The capture solid phase reagent (450 uL.) is then added to the cuvette followed by an additional incubation of 2.5 minutes. After the second incubation, magnetic separation and washes are performed as described above prior to detection of the chemiluminescent signal.
All data presented was generated based on a two-point calibration off a full standard master curve, consisting of ten standards. The standards, ranging from zero to 1000 mIU/mL., are calibrated against the WHO 1st 75/537 reference material.

Test [5] is described as follows: Digoxin immunoassay, interfering substances (NCCLS protocols). The settings on record: bilirubin 20, lipid 1,000, hemolysate 500 mg/dL. Here is the method:
A digoxin assay has been developed for the above described automated analyzer. The digoxin assay architecture is a hapten solid phase with a labeled antibody (tracer reagent). […] A test sample (150 uL.) and tracer reagent (50 uL.) are dispensed into a cuvette by the analyzer and incubated for 2.5 minutes at 37° C. The solid phase reagent (250 uL.) is then added to the cuvette followed by an additional incubation of 5.0 minutes. After the second incubation, magnetic separation and washes are performed as described above prior to detection of the chemiluminescent signal.
as §1

On to “Hemoglobin: endogenous interferent spiked into patient samples at 500 mg/dL”, for which the “Spiked vs. Control, Mean +/− SD” value in test [1] (endogenous interferents) was 99 +/− 4%.
For `C[C@H]1O[C@@H](O[C@H]2[C@@H](O)C[C@H](O[C@H]3[C@@H](O)C[C@H](O[C@H]4CC[C@@]5(C)[C@H](CC[C@@H]6[C@@H]5CC[C@]5(C)[C@@H](C7=CC(=O)OC7)CC[C@]65O)C4)O[C@@H]3C)O[C@@H]2C)C[C@H](O)[C@@H]1O` [Digitoxin], the “% Cross-Reactivity” value in test [2] was 0.6%.
With `CC/C(=C(/CC)c1ccc(O)cc1)c1ccc(O)cc1` [Diethyl-Stilbesterol], the “Spiked vs. Control, Mean +/− SD” value in test [1] (chemotherapeutic agents) is 101 +/− 5%.
For the molecule `N[C@H](Cc1cc(I)c(Oc2cc(I)c(O)c(I)c2)c(I)c1)C(=O)O` [D-thyroxine], the “% Cross-Reactivity” value in test [3] was over 64%.
On to `NC(Cc1ccc(Oc2cc(I)c(O)c(I)c2)c(I)c1)C(=O)O` (centres unmarked) [Reverse triiodothyronine], for which the “% Cross-Reactivity” value in test [3] turned out to be 3.1%.
On the same count and under the same terms, under `N[C@@H](Cc1cc(I)c(O)c(I)c1)C(=O)O` [Diiodotyrosine] stands under 0.002%.
As for `CO[C@H]1[C@@H](O)C[C@H](O[C@H]2[C@@H](O)C[C@H](O[C@H]3[C@@H](O)C[C@H](O[C@H]4CC[C@@]5(C)[C@H](CC[C@@H]6[C@@H]5C[C@@H](O)[C@]5(C)[C@@H](C7=CC(=O)OC7)CC[C@]65O)C4)O[C@@H]3C)O[C@@H]2C)O[C@@H]1C` [β-Methyldigoxin], in test [2], the “% Cross-Reactivity” value is 109.4%.
Take `N[C@H](Cc1cc(I)c(Oc2ccc(O)c(I)c2)c(I)c1)C(=O)O` [D-triiodothyronine]: the “% Cross-Reactivity” value in test [3] is reported as 3.6%.
Take `C[C@H]1O[C@@H](O[C@H]2CC[C@@]3(C)[C@H](CC[C@@H]4[C@@H]3C[C@@H](O)[C@]3(C)[C@@H](C5=CC(=O)OC5)CC[C@]43O)C2)C[C@H](O)[C@@H]1O[C@H]1C[C@H](O)[C@H](O[C@H]2C[C@H](O)[C@H](O[C@@H]3O[C@H](CO)[C@@H](O)[C@H](O)[C@H]3O)[C@@H](C)O2)[C@@H](C)O1` [Deslanoside]: the “% Cross-Reactivity” value in test [2] is on record as 94.6%.
As for `C=CC1=C(C)/C(=C/c2[nH]c(Cc3[nH]c(/C=C4\NC(=O)C(C)=C4C=C)c(C)c3CCC(=O)O)c(CCC(=O)O)c2C)NC1=O` [Unconjug. Bilirubin], the “Spiked vs. Control, Mean +/− SD” value in test [1] (endogenous interferents) is 103 +/− 6%. The “Spiked vs. Control” value in test [4] is 106% and 98% and 103%; in test [5] it was 105% and 99%.
Turning to `C[C@@H]1O[C@@H](O[C@H]2C[C@@H](O)[C@]3(CO)[C@H]4[C@H](O)C[C@]5(C)[C@@H](C6=CC(=O)OC6)CC[C@]5(O)[C@@H]4CC[C@]3(O)C2)[C@H](O)[C@H](O)[C@H]1O` [Ouabain], the “% Cross-Reactivity” value in test [2] is listed as 7.3%.
Take Conjugated Bilirubin: in test [1] (endogenous interferents), the “Spiked vs. Control, Mean +/− SD” value was 101 +/− 9%. The “Spiked vs. Control” value in test [4] is 102%; in test [5], 106% and 99%.
Turning to `N[C@@H](Cc1cc(I)c(Oc2ccc(O)c(I)c2)c(I)c1)C(=O)O` [L-triiodothyronine], the “% Cross-Reactivity” value in test [3] is listed as 3.9%.
On the same count and under the same terms, under `N[C@@H](Cc1cc(I)c(Oc2ccc(O)cc2)c(I)c1)C(=O)O` [3,5-diiodo-L-thyronine] stands under 0.002%.
Consider `CC(=O)O[C@H]1C[C@H](O[C@H]2[C@@H](O)C[C@H](O[C@H]3[C@@H](O)C[C@H](O[C@H]4CC[C@@]5(C)[C@H](CC[C@@H]6[C@@H]5C[C@@H](O)[C@]5(C)[C@@H](C7=CC(=O)OC7)CC[C@]65O)C4)O[C@@H]3C)O[C@@H]2C)O[C@H](C)[C@H]1O[C@@H]1O[C@H](CO)[C@@H](O)[C@H](O)[C@H]1O` [Lanatoside C], for which the “% Cross-Reactivity” value in test [2] is listed as 87.1%.
Take `N[C@@H](Cc1ccc(O)c(I)c1)C(=O)O` [Monoiodotyrosine]: in test [3], the “% Cross-Reactivity” value was under 0.002%.
Take `O=P1(N(CCCl)CCCl)NCCCO1` (centres unmarked) [Cyclophosphamide]: the “Spiked vs. Control, Mean +/− SD” value in test [1] (chemotherapeutic agents) is 98 +/− 3%.
Turning to `COc1cccc2c1C(=O)c1c(O)c3c(c(O)c1C2=O)C[C@@](O)(C(=O)CO)C[C@@H]3O[C@H]1C[C@H](N)[C@H](O)[C@H](C)O1` [Doxorubicin], the “Spiked vs. Control, Mean +/− SD” value in test [1] (chemotherapeutic agents) is on record as 100 +/− 3%.
Consider `CC(=O)O[C@]1(C(C)=O)CC[C@H]2[C@@H]3C=C(C)C4=CC(=O)CC[C@]4(C)[C@H]3CC[C@@]21C` [Megestrol Acetate], for which, in test [1] (chemotherapeutic agents), the “Spiked vs. Control, Mean +/− SD” value was 101 +/− 5%.
